# Test results published in patent US10918641B2, “Use of MTAP inhibitors for the treatment of lung disease” (The University of North Carolina at Chapel Hill, priority 2015, dated 2021).
# pKi: −log10 of the molar value. Entries after “also recorded” stand apart in the source; their conditions may differ.
# Key:
# human MTAP = target: T1, human MTAP (Homo sapiens, UniProt Q13126); assay: Inhibition of human MTAP by transition state analogue (Ki*); format: biochemical
# T1 sequence (Q13126 1-283): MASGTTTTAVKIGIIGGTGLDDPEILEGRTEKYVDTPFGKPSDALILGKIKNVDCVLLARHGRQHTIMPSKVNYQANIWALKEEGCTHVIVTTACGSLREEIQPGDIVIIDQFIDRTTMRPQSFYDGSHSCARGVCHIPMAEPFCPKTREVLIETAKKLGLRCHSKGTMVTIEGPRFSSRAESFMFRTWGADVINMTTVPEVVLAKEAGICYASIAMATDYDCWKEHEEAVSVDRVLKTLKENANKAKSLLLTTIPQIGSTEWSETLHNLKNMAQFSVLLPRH
# [1] = tested on: protein receptor and kinase panels; assay: Protein receptor and kinase panels (off-target effects); format: binding
# [2] = Acute and seven-day repeat-dose toxicity by gavage in CD-1 mice
# Description: In CD-1 mice, a single dose of MTDIA was administered by gavage to establish acute toxicity (300, 600 and 1000 mg/kg), or once daily for seven consecutive days (0, 600 and 1000 mg/kg/day) to determine repeat-dose toxicity. Mice were monitored for abnormalities, survival rates, histopathological changes (heart, lung, liver, kidney, spleen, small intestine and stomach were evaluated histopathologically by a board certified pathologist), clinical chemistry and complete blood count (CBC) analysis.
# [3] = Toxicity in in vitro (2D and 3D culture) and in vivo studies to date; conditions: all in vitro (2D and 3D culture) and in vivo studies to date
# Scnn1b-Tg mice [4] = assay: 15 mg/kg oral gavage once daily for three days in Scnn1b-Tg mice; format: in vivo, mouse
# Description: Therefore, we repeated the above study in Scnn1b-Tg mice using 15 mg/kg MTDIA by oral gavage once daily for three days. With the longer treatment, we observed increases in serum (FIG. 8A) and BALF (FIG. 8B) MTA concentrations in treated mice relative to vehicle treated animals (n=13 and 11, respectively), similar to the changes seen with the single dose experiments.
# Similar differences were observed when BALF inflammatory cells were analyzed as cell differentials rather than cell counts. These findings provide compelling evidence that MTDIA can act as an anti-inflammatory drug in a chronic airways disease model.
# [5] = Stability of MTDIA in drinking water (MS method); format: physicochemical; conditions: three days, room temperature
# MTA metabolism at MTAP [6] = assay: MTDIA in drinking water of WT mice, serum and BALF MTA; format: in vivo
# Description: The effect of a range of MTDIA concentrations in drinking water on serum and BALF MTA concentrations in WT mice is explored using protocols similar to those described above, except that MTDIA is delivered in drinking water rather than oral gavage. In preliminary experiments, we calculated that 75 μg/mL of MTDIA in drinking water would deliver a dose of 15 mg/kg per day that we utilized in our single dose experiments (based on estimates of a 25 g mouse drinking […] water per day), and we examined WT mice treated with this dose as well as half of this dose (37.5 μg/mL) relative to mice drinking untreated water. […] Once this dose is established, this dose is tested over three days in our Scnn1b-Tg and CF/Scnn1b-Tg mice to ensure that we observe similar effects in these models.
# MTAP = MTAP (Mus musculus, UniProt Q9CQ65)
# Sequence of MTAP (Q9CQ65 whole entry): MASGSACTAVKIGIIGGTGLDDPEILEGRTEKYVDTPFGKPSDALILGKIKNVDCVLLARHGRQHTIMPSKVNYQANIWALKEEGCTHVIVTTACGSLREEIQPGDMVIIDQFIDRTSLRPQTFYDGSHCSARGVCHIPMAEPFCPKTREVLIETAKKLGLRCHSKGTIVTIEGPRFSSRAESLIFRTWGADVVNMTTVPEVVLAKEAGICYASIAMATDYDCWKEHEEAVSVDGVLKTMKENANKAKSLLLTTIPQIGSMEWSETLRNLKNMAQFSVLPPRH
# MTA metabolism at MTAP [7] = tested on: MTA metabolism at MTAP
# MTA metabolism at MTAP [8] = tested on: MTA metabolism at MTAP; remark: listed apart in the source
# Description: A) Serum MTA concentrations after single oral dose of various concentrations of MTDIA (range 0.6-150 mg/kg, numbers on graph represent dose in mg/kg MTDIA) as well as a 10 mg/kg dose IV.
# physchem = conditions: PBS, aqueous buffer
# [9] = Metabolic stability in human hepatocytes and microsomes
# Scnn1b-Tg mice [10] = assay: Single 15 mg/kg oral gavage dose in WT and Scnn1b-Tg mice
# [11] = MTDIA plasma pharmacokinetics after oral or i.p. dose in CD-1 mice; conditions: in words
# [12] = 15 mg/kg once daily, three days
compound,measurement,setting,value
"CSC[C@H]1CN(Cc2c[nH]c3c(N)ncnc23)C[C@@H]1O [MTDIA, (3R,4S)-1-[(9-deazaadenin-9-yl)methyl]-3-hydroxy-4-(methylthiomethyl)pyrrolidine]",pKi,human MTAP,10.07
same,Affinity for MTAP,human MTAP; in words,picomolar affinity
same,Off-target effects in protein receptor and kinase panels,[1],minimal off-target effects
same,LOAEL (Lowest-Observed-Adverse-Effect level),"[2]; CD-1 mice, gavage",600 mg/kg/day
same,Histopathological findings,"[2]; mouse, in vivo",No histopathological findings were detected
same,Toxicity observed,[3],No significant toxicity
same,BALF MTA concentrations vs. vehicle,Scnn1b-Tg mice [4]; [12],increases
same,Free concentrations of spermine and spermidine in serum or BALF,Scnn1b-Tg mice [4]; [12],did not observe large changes; also recorded: minimal changes
same,Serum MTA concentrations vs. vehicle,Scnn1b-Tg mice [4]; [12],increases; also recorded: increased serum MTA concentrations
same,"Bronchus-associated lymphoid tissue (BALT), lung histology",Scnn1b-Tg mice [4]; three days of MTDIA treatment,meaningfully reduced; also recorded: greatly reduced
same,Enlarged activated macrophage phenotype (BALF cytospins),Scnn1b-Tg mice [4]; three days of MTDIA treatment,appears to be reduced; also recorded: resolve to a more WT appearance
same,BALF macrophage cell counts,Scnn1b-Tg mice [4]; three days oral MTDIA,corresponding increase
same,BALF eosinophil cell count,"Scnn1b-Tg mice [4]; three days oral MTDIA, vehicle 14.2+13.5, p<0.001",2.2+3.2 ×10^3 cells/ml
same,BALF neutrophil cell count,"Scnn1b-Tg mice [4]; three days oral MTDIA, vehicle 32.0+16.9, p<0.001",11.5+8.2 ×10^3 cells/ml
same,Stability in drinking water,[5],stable
same,Serum MTA concentrations vs. control,MTA metabolism at MTAP [6]; 37.5 μg/mL in drinking water,more than two orders of magnitude higher than control; also recorded: orders of magnitude increases
same,Serum MTA concentrations vs. control,MTA metabolism at MTAP [6]; 75 μg/mL in drinking water,more than two orders of magnitude higher than control; also recorded: orders of magnitude increases
same,BALF MTA vs. control,MTA metabolism at MTAP [6]; 37.5 or 75 μg/mL in drinking water,less dramatic increases; also recorded: increased BALF MTA concentrations
same,Duration of inhibition of MTAP activity in vivo,MTAP; an oral or i.p. dose,> 24 h
same,Time for MTAP catalytic activity in mouse serum to return to normal,MTAP; single oral dose 15 mg/kg,≤ 36 h
same,Time for which catalytic activity of MTAP in mouse serum is completely inhibited,MTAP; single oral dose 15 mg/kg,24 h
same,Urinary MTA,"MTA metabolism at MTAP [7]; 15 mg/kg, mice",approximately 30 μM
same,Increase of plasma MTA levels,"MTA metabolism at MTAP [7]; 15 mg/kg, mice, after 30 min",> 100 fold
same,Decrease in polyamine concentrations,MTA metabolism at MTAP [7]; an oral or i.p. dose,~2 fold
same,MTA accumulation in plasma over baseline levels,MTA metabolism at MTAP [7]; an oral or i.p. dose,> 100 fold
same,Oral dose yielding maximal response in serum MTA concentrations,"MTA metabolism at MTAP [8]; previous experiments, as stated in Example 7",15 mg/kg
same,Oral dose with maximum effect on serum MTA concentrations,MTA metabolism at MTAP [8]; single oral dose range 0.6-150 mg/kg (FIG. 7A legend),30 mg/kg
same,solubility,physchem,156 mM
same,Time metabolically stable,"[9]; in vitro, human hepatocytes and microsomes",over 4 hr
same,Metabolic stability in microsomes and hepatocytes,[9]; in words,metabolically stable
same,BALF inflammatory markers,Scnn1b-Tg mice [10]; after a single dose,did not observe any changes
same,Serum MTA concentrations,"Scnn1b-Tg mice [10]; single 15 mg/kg oral gavage, 24 hours, WT and Scnn1b-Tg mice, 15 mg/kg",increase; also recorded: increases serum MTA
same,Oral availability,[11],orally available
